# Data published in ChEMBL document CHEMBL4359859, “Design, Synthesis, and Biological Characterization of Orally Active 17β-Hydroxysteroid Dehydrogenase Type 2 Inhibitors Targeting the Prevention of Osteoporosis” (J Med Chem, 2019).
# How the values were obtained:
# [1] = Half life in human liver S9 fraction at 1 uM measured in presence of NADPH generating system; assay type: ADME, subcellular
# Homo sapiens = species on record: Homo sapiens; experiment: Selectivity ratio of IC50 for HEK293 cells to IC50 for human placental microsomal fraction 17beta-HSD2
# [2] = target: T1, ERalpha (estrogen receptor) (Homo sapiens, UniProt P03372); experiment: Antagonist activity at ERalpha (unknown origin) expressed in human U2OS cells assessed as inhibition of E2-induced transcriptional activity at 10 uM measured after 24 hrs by dual luciferase reporter gene assay relative to control; assay type: cell-based; conditions: human U2OS cells expressing ERalpha
# T1 sequence (P03372 whole entry): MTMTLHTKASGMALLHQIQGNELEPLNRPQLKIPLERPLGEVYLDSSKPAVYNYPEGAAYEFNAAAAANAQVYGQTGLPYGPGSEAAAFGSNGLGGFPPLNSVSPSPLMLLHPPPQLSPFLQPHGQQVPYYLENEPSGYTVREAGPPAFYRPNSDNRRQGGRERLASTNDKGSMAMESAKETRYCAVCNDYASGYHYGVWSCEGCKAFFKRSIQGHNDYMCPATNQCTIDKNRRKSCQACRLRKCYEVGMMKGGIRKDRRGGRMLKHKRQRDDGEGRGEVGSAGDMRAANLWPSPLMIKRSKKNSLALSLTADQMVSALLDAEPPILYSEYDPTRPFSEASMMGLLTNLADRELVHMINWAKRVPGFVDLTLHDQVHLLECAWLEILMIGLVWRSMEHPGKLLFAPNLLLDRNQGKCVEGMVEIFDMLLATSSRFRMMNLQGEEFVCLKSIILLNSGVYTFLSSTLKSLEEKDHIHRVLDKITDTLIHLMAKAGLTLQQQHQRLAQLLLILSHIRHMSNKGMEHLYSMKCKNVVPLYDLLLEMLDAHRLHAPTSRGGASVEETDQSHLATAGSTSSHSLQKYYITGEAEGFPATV
# [3] = Half life in rat liver S9 fraction at 1 uM measured in presence of NADPH generating system; assay type: ADME, subcellular
# [4] = Ratio of plasma concentration in Wistar Hannover RjHan:Wi rat at 50 mg/kg, po to IC50 for rat liver homogenate 17beta-HSD2; assay type: ADME, organism-based; conditions: in vivo
# [5] = Time at which plasma concentration required to show >90% inhibition for recombinant rat 17beta-HSD1 expressed in HEK293 cells in Wistar Hannover RjHan:Wi rat at 50 mg/kg, po; assay type: ADME, organism-based; conditions: in vivo
# [6] = Plasma concentration in Wistar Hannover RjHan:Wi rat at 50 mg/kg, po measured after 24 hrs by HPLC-LC/MS analysis; assay type: ADME, organism-based
# [7] = Stability in rat liver S9 fraction at 1 uM measured after 60 mins in presence of NADPH generating system; assay type: ADME, subcellular; conditions: s9, 1 h
half-life at 1 µM [1],"inhibition at 24 h, 10 µM [2]",half-life at 1 µM ([3]; liver S9 fraction),Ratio [4],Time [5],concentration at 24 h [6],"t1/2 ([3]; s9, 1 µM)",Stability [7],SMILES,Ratio IC50 (Homo sapiens)
1.1 h,< 5%,1.53 h,63,24 h,632 nM,–,–,O=C(c1ccc(-c2ccccc2NS(=O)(=O)c2ccc(F)cc2)s1)c1cc(F)c(F)c(O)c1F,6000
0.7 h,< 5%,–,–,–,–,1 h,100%,N#Cc1ccc(S(=O)(=O)Nc2cccc(-c3ccc(C(=O)c4cc(F)c(F)c(O)c4F)s3)c2)cc1,6000
